# What was measured:
# [1] = biological target: Epidermal growth factor receptor (Homo sapiens) (UniProt P00533); experiment: Inhibition of EGFR at 1 uM
# [2] = Inhibition of PKBalpha; conditions: concentration not given here
# [3] = biological target: Serine/threonine-protein kinase pim-1 (Homo sapiens) (UniProt P11309); experiment: Inhibition of PIM1 at 1 uM
# [4] = Inhibition of PKA at 1 uM
# [5] = biological target: Tyrosine-protein kinase SYK (Homo sapiens) (UniProt P43405); experiment: Inhibition of SYK at 1 uM
# [6] = biological target: Mast/stem cell growth factor receptor Kit (Homo sapiens) (UniProt P10721); experiment: Inhibition of cKIT1 at 1 uM
# [7] = biological target: Aurora kinase A (Homo sapiens) (UniProt O14965); experiment: Inhibition of Aurora A at 1 uM
# [8] = biological target: Serine/threonine-protein kinase PAK 2 (Homo sapiens) (UniProt Q13177); experiment: Inhibition of PAK2 at 1 uM
# [9] = biological target: T1, Macrophage colony-stimulating factor 1 receptor (Homo sapiens, UniProt P07333); experiment: Inhibition of FMS at 1 uM
# [10] = biological target: Ribosomal protein S6 kinase beta-1 (Homo sapiens) (UniProt P23443); experiment: Inhibition of p70S6K at 1 uM
# [11] = biological target: Serine/threonine-protein kinase PLK1 (Homo sapiens) (UniProt P53350); experiment: Inhibition of PLK1 at 1 uM
# [12] = biological target: Protein kinase C alpha type (Homo sapiens) (UniProt P17252); experiment: Inhibition of PKCalpha at 1 uM
# [13] = biological target: Protein-tyrosine kinase 2-beta (Homo sapiens) (UniProt Q14289); experiment: Inhibition of PYK2 at 1 uM
# [14] = biological target: Mitogen-activated protein kinase kinase kinase 9 (Homo sapiens) (UniProt P80192); experiment: Inhibition of MLK1 at 1 uM
# [15] = biological target: Inhibitor of nuclear factor kappa-B kinase subunit beta (Homo sapiens) (UniProt O14920); experiment: Inhibition of IKK-beta at 1 uM
# [16] = biological target: Mitogen-activated protein kinase 8 (Homo sapiens) (UniProt P45983); experiment: Inhibition of JNK1alpha1 at 1 uM
# [17] = biological target: Cyclin-dependent kinase 5/CDK5 activator 1 (Homo sapiens) (UniProt Q00535+Q15078); experiment: Inhibition of CDK5/p25 at 1 uM; type: protein-complex assay
# [18] = biological target: Glycogen synthase kinase-3 beta (Homo sapiens) (UniProt P49841); experiment: Inhibition of GSK3-beta at 1 uM
# [19] = biological target: Proto-oncogene tyrosine-protein kinase receptor Ret (Homo sapiens) (UniProt P07949); experiment: Inhibition of RET at 1 uM
# [20] = biological target: Rho-associated protein kinase 1 (Homo sapiens) (UniProt Q13464); experiment: Inhibition of ROCK1 at 1 uM
# [21] = biological target: Tyrosine-protein kinase Lck (Homo sapiens) (UniProt P06239); experiment: Inhibition of LCK at 1 uM
# [22] = biological target: Tyrosine-protein kinase ABL1 (Homo sapiens) (UniProt P00519); experiment: Inhibition of ABL1 at 1 uM
# [23] = biological target: Insulin receptor (Homo sapiens) (UniProt P06213); experiment: Inhibition of IR at 1 uM
# [24] = biological target: [Pyruvate dehydrogenase (acetyl-transferring)] kinase isozyme 1, mitochondrial (Homo sapiens) (UniProt Q15118); experiment: Inhibition of PDK1 at 1 uM
# [25] = biological target: Receptor-type tyrosine-protein kinase FLT3 (Homo sapiens) (UniProt P36888); experiment: Inhibition of FLT3 at 1 uM
# [26] = biological target: Proto-oncogene tyrosine-protein kinase Src (Homo sapiens) (UniProt P12931); experiment: Inhibition of c-SRC at 1 uM
# [27] = biological target: T2, Vascular endothelial growth factor receptor 2 (Homo sapiens, UniProt P35968); experiment: Inhibition of KDR
# [28] = biological target: Tyrosine-protein kinase BTK (Homo sapiens) (UniProt Q06187); experiment: Inhibition of BTK at 1 uM
# [29] = biological target: Fibroblast growth factor receptor 1 (Homo sapiens) (UniProt P11362); experiment: Inhibition of FGFR1 at 1 uM
# [30] = biological target: ALK tyrosine kinase receptor (Homo sapiens) (UniProt Q9UM73); experiment: Inhibition of ALK at 1 uM
# [31] = biological target: Serine/threonine-protein kinase Chk1 (Homo sapiens) (UniProt O14757); experiment: Inhibition of CHK1 at 1 uM
# [32] = biological target: Calcium/calmodulin-dependent protein kinase type 1 (Homo sapiens) (UniProt Q14012); experiment: Inhibition of CamK1 at 1 uM
# [33] = biological target: Ephrin type-A receptor 1 (Homo sapiens) (UniProt P21709); experiment: Inhibition of EPHA1 at 1 uM
# [34] = biological target: Insulin-like growth factor 1 receptor (Homo sapiens) (UniProt P08069); experiment: Inhibition of IGF1R at 1 uM
# [35] = biological target: Proto-oncogene tyrosine-protein kinase ROS (Homo sapiens) (UniProt P08922); experiment: Inhibition of ROS1 at 1 uM
# [36] = biological target: Dual specificity mitogen-activated protein kinase kinase 1 (Homo sapiens) (UniProt Q02750); experiment: Inhibition of MEK1 at 1 uM
# [37] = biological target: Serine/threonine-protein kinase MARK1 (Homo sapiens) (UniProt Q9P0L2); experiment: Inhibition of MARK1 at 1 uM
# [38] = biological target: Serine/threonine-protein kinase mTOR (Homo sapiens) (UniProt P42345); experiment: Inhibition of mTOR at 1 uM
# [39] = biological target: Ribosomal protein S6 kinase alpha-1 (Homo sapiens) (UniProt Q15418); experiment: Inhibition of RSK1 at 1 uM
# [40] = biological target: Tyrosine-protein kinase Tec (Homo sapiens) (UniProt P42680); experiment: Inhibition of TEC at 1 uM
# [41] = biological target: T1, Macrophage colony-stimulating factor 1 receptor; experiment: Inhibition of FMS
# [42] = biological target: Tyrosine-protein kinase Fyn (Homo sapiens) (UniProt P06241); experiment: Inhibition of FYN at 1 uM
# [43] = biological target: Homeodomain-interacting protein kinase 2 (Homo sapiens) (UniProt Q9H2X6); experiment: Inhibition of HIPK2 at 1 uM
# [44] = biological target: Mitogen-activated protein kinase 14 (Homo sapiens) (UniProt Q16539); experiment: Inhibition of SAPK2A at 1 uM
# [45] = biological target: Tyrosine-protein kinase JAK3 (Homo sapiens) (UniProt P52333); experiment: Inhibition of JAK3 at 1 uM
# [46] = biological target: T2, Vascular endothelial growth factor receptor 2; experiment: Inhibition of KDR at 1 uM
# T1 sequence (P07333 whole entry, looked up): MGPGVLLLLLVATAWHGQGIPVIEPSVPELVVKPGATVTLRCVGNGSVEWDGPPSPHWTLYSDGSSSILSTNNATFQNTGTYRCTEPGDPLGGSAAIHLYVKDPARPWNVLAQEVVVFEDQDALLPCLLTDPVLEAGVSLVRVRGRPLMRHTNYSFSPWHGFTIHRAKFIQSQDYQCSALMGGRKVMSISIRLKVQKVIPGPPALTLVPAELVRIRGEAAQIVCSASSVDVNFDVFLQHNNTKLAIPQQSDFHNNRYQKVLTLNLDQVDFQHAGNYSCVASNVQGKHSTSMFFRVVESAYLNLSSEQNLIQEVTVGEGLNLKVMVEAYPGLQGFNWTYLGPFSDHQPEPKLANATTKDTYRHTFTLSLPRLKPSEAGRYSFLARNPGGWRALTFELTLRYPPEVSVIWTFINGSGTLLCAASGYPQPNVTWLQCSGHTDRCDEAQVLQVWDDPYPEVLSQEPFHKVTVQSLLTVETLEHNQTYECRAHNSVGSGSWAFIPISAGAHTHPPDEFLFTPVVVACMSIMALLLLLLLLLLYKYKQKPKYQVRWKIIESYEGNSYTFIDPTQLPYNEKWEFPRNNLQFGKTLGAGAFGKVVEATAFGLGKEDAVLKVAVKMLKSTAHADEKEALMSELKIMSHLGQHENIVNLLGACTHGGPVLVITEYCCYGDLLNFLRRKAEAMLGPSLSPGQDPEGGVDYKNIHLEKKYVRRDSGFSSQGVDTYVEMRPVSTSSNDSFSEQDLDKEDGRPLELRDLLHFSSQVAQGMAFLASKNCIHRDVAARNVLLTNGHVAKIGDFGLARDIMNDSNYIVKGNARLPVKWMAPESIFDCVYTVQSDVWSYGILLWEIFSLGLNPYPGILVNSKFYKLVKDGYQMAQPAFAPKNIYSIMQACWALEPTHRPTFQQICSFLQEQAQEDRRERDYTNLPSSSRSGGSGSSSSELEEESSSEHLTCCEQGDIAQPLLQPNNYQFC
# T2 sequence (P35968 whole entry): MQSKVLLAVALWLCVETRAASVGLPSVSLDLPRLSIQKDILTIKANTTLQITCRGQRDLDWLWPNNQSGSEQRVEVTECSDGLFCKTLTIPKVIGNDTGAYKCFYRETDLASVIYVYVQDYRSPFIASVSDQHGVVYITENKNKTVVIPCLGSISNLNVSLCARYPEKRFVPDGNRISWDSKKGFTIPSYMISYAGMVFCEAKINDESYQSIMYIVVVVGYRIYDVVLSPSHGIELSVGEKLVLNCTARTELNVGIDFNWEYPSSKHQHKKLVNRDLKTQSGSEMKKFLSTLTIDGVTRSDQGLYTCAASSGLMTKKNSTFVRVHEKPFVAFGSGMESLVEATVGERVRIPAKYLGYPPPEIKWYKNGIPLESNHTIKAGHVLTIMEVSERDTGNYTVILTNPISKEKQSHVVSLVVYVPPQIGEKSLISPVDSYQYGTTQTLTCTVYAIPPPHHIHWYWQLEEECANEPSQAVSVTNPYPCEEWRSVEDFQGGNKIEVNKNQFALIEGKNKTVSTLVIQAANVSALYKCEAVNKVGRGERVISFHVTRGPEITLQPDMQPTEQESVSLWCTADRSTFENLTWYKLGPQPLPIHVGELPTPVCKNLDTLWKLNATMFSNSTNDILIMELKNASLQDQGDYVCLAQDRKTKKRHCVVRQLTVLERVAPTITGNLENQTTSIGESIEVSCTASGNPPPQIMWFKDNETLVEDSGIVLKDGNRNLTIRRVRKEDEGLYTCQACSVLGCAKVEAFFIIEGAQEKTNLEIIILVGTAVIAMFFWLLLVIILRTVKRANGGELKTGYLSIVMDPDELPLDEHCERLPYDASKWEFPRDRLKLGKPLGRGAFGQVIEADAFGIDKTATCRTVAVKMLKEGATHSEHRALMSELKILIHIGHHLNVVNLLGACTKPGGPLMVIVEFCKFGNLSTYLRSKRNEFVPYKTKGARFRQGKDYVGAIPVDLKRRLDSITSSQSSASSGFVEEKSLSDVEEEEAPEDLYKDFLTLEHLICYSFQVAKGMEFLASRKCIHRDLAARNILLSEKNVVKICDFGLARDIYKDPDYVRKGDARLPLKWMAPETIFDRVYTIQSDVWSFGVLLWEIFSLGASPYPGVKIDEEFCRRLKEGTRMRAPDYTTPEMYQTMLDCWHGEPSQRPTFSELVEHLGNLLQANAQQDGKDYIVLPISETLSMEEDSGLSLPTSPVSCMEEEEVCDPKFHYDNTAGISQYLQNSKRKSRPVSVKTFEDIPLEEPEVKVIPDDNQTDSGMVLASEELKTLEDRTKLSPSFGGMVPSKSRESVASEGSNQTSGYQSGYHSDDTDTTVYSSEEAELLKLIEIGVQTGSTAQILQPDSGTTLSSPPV
# Sequence of Ribosomal protein S6 kinase beta-1 (Homo sapiens) (P23443 whole entry, looked up): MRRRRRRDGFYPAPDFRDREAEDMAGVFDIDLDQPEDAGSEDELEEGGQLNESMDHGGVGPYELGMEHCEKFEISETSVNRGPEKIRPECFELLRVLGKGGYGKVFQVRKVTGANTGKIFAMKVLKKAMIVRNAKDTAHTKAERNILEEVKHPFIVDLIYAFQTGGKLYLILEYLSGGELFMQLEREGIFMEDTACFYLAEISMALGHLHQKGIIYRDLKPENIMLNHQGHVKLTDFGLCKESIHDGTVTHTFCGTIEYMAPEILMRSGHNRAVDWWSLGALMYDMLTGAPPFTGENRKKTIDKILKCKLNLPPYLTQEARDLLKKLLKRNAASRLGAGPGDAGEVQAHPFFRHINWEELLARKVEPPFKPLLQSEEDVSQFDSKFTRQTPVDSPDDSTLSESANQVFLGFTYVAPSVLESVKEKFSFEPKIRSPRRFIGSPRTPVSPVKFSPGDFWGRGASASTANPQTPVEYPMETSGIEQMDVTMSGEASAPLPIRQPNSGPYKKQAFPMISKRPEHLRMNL
# Sequence of Homeodomain-interacting protein kinase 2 (Homo sapiens) (Q9H2X6 whole entry, looked up): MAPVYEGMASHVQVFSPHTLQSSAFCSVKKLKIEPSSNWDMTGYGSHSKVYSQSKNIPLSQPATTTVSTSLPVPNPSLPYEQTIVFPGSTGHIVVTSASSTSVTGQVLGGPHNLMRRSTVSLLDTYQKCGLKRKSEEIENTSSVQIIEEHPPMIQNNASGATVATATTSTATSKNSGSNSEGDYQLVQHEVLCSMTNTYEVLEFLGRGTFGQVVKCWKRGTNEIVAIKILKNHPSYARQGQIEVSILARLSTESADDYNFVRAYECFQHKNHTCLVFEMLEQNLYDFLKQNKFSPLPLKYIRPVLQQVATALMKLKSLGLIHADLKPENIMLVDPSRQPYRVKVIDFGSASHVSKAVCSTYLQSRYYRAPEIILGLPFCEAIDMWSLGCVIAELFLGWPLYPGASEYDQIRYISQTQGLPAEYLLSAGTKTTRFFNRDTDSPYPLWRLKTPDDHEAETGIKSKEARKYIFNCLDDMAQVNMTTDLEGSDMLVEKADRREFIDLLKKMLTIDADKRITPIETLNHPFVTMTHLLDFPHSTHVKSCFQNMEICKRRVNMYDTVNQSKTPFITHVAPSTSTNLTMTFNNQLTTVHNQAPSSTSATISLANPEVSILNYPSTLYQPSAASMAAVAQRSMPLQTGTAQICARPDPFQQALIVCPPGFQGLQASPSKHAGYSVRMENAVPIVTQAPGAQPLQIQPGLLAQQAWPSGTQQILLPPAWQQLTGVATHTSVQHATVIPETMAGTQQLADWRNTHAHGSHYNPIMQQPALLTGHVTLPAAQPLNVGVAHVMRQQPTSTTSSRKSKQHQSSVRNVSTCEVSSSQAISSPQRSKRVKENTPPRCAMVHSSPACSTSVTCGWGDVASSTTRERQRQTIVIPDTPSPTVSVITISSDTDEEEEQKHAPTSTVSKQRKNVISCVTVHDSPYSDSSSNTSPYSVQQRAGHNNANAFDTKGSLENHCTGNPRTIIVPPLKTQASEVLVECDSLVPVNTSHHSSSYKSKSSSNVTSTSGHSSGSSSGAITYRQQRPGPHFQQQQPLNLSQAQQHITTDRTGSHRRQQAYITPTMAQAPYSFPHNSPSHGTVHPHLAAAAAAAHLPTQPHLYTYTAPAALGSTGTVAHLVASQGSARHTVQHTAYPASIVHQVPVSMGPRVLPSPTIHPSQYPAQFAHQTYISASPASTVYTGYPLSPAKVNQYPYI
# Sequence of Receptor-type tyrosine-protein kinase FLT3 (Homo sapiens) (P36888 whole entry): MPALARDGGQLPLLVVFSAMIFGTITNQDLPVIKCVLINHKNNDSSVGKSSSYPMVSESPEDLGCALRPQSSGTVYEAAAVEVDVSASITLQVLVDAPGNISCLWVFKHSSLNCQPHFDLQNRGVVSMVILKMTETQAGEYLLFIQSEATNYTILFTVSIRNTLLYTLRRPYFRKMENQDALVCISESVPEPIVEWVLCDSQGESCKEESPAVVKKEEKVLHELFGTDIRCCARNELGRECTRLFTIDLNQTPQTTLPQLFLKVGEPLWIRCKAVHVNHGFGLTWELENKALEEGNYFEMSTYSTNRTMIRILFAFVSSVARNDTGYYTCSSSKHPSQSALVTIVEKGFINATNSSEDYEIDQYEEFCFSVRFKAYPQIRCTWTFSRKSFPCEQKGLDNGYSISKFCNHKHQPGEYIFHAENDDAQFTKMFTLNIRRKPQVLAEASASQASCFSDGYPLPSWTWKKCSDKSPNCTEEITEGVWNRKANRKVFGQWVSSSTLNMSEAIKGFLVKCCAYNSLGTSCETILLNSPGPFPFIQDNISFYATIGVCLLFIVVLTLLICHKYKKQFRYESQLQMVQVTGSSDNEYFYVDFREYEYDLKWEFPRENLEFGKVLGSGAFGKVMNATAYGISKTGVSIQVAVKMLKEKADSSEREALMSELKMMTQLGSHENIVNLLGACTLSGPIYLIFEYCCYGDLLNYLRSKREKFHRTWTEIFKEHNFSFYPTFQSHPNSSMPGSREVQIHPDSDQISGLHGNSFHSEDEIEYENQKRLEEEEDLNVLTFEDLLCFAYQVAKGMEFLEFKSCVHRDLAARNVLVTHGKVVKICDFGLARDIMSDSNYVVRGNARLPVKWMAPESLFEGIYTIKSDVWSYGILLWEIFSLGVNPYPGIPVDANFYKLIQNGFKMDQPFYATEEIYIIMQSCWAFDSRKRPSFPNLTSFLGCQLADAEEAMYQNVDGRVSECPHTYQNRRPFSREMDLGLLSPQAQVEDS
smiles,measurement,setting,value
O=C(Nc1cccc(-n2ccc3c(NC(=O)c4ccccc4)nccc32)c1)c1ccc(N2CCOCC2)c(C(F)(F)F)c1,inhibition,[1],1%
same,inhibition,[2],18%
same,inhibition,[3],10%
same,inhibition,[4],16%
same,inhibition,[5],6%
same,inhibition,[6],-2%
same,inhibition,[7],21%
same,inhibition,[8],2%
same,inhibition,[9],90%
same,inhibition,[10],7%
same,inhibition,[11],4%
same,inhibition,[12],-5%
same,inhibition,[13],23%
same,inhibition,[14],-1%
same,inhibition,[15],23%
same,inhibition,[16],-1%
same,inhibition,[17],8%
same,inhibition,[18],4%
same,inhibition,[19],57%
same,inhibition,[20],3%
same,inhibition,[21],33%
same,inhibition,[22],41%
same,inhibition,[23],2%
same,inhibition,[24],-1%
same,inhibition,[25],16%
same,inhibition,[26],10%
same,IC50,[27],1.06 µM
same,inhibition,[28],7%
same,inhibition,[29],6%
same,inhibition,[30],11%
same,inhibition,[31],-8%
same,inhibition,[32],-1%
same,inhibition,[33],9%
same,inhibition,[34],10%
same,inhibition,[35],19%
same,inhibition,[36],12%
same,inhibition,[37],-9%
same,inhibition,[38],-10%
same,inhibition,[39],8%
same,inhibition,[40],14%
same,IC50,[41],0.096 µM
same,inhibition,[42],44%
same,inhibition,[43],9%
same,inhibition,[44],25%
same,inhibition,[45],17%
same,inhibition,[46],71%

# — ChEMBL document CHEMBL1155511, “Discovery of a new potent bisamide FMS kinase inhibitor” (Bioorg Med Chem Lett, 2010)
